Target: human TYK2 (JH2domain-pseudokinase) (Homo sapiens (Human), UniProt P29597)
Assay: TYK2 JH2 Domain Binding Assay (KINOMEscan, DiscoveRx)
Conditions: 11-point dilution, duplicate
Outline: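 TYK2 JH2 (G556–D888)–NFkB DBD fusion, DNA-tagged, from HEK293 extracts (<0.1 nM) competed against immobilised biotinylated ligand for 1 h at room temperature, 0.9% DMSO. Bead-retained kinase quantified by qPCR; Kd from 11-point 3-fold series (top 30,000 nM, duplicate), Hill fit with slope −1.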

human TYK2 (JH2domain-pseudokinase), sequence (P29597 556-888): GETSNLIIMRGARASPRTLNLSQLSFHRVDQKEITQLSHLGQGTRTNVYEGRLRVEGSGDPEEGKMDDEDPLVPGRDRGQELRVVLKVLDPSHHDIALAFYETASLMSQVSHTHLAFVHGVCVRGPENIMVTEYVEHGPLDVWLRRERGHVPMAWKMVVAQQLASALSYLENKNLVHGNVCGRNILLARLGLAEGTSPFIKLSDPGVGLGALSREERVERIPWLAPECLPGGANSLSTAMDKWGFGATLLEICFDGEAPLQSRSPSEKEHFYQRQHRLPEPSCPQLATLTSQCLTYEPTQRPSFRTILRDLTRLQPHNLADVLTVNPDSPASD

| SMILES | Kd [nM] |
| --- | --- |
| Cc1cc(Nc2cc(Nc3ccc(C4=NC(C)(C)CS4)cc3S(C)(=O)=O)c3nc(C)[nH]c3n2)nc(C)n1 [I-564, N7-(4-(4,4-dimethyl-4,5-dihydrothiazol-2-yl)-2-(methylsulfonyl)phenyl)-N5-(2,6-dimethylpyrimidin-4-yl)-2-methyl-3H-imidazo[4,5-b]pyridine-5,7-diamine] | 0.1 to 0.5 |
| Cc1ncc(Nc2cc(Nc3ccc(C4=NC(C)(C)CS4)cc3S(C)(=O)=O)c3nc(C(F)F)[nH]c3n2)nc1C [I-565, 2-(difluoromethyl)-N7-(4-(4,4-dimethyl-4,5-dihydrothiazol-2-yl)-2-(methylsulfonyl)phenyl)-N5-(5,6-dimethylpyrazin-2-yl)-3H-imidazo[4,5-b]pyridine-5,7-diamine] | 1 to 10 |
| Cc1nc2c(Nc3ccc(C4=NC(C)(C)CS4)cc3S(C)(=O)=O)cc(Nc3cnc(C)c(C)n3)nc2[nH]1 [I-566, N7-(4-(4,4-dimethyl-4,5-dihydrothiazol-2-yl)-2-(methylsulfonyl)phenyl)-N5-(5,6-dimethylpyrazin-2-yl)-2-methyl-3H-imidazo[4,5-b]pyridine-5,7-diamine] | 1 to 10 |
| CC1(C)CSC(c2ccc(Nc3cc(NC(=O)C4CC4)nc4[nH]c(C(F)F)nc34)c(S(C)(=O)=O)c2)=N1 [I-567, N-(2-(difluoromethyl)-7-((4-(4,4-dimethyl-4,5-dihydrothiazol-2-yl)-2-(methylsulfonyl)phenyl)amino)-3H-imidazo[4,5-b]pyridin-5-yl)cyclopropanecarboxamide] | 1 to 10 |
| Cc1nc2c(Nc3ccc(C4=NC(C)(C)CS4)cc3S(C)(=O)=O)cc(NC(=O)C3CC3)nc2[nH]1 [I-568, N-(7-((4-(4,4-dimethyl-4,5-dihydrothiazol-2-yl)-2-(methylsulfonyl)phenyl)amino)-2-methyl-3H-imidazo[4,5-b]pyridin-5-yl)cyclopropanecarboxamide] | 0.5 to 1 |
| Cc1nc2c(Nc3ccc([C@H]4CCCO4)cc3S(C)(=O)=O)cc(Nc3cccc(C#N)n3)nc2[nH]1 [I-569, (R)-6-((2-methyl-7-((2-(methylsulfonyl)-4-(tetrahydrofuran-2-yl)phenyl)amino)-3H-imidazo[4,5-b]pyridin-5-yl)amino)picolinonitrile] | < 0.1 |
| Cc1nc2c(Nc3ccc([C@@H]4CCCO4)cc3S(C)(=O)=O)cc(Nc3cccc(C#N)n3)nc2[nH]1 [I-570, (S)-6-((2-methyl-7-((2-(methylsulfonyl)-4-(tetrahydrofuran-2-yl)phenyl)amino)-3H-imidazo[4,5-b]pyridin-5-yl)amino)picolinonitrile] | 0.1 to 0.5 |
| CS(=O)(=O)c1cc(C2CCC(F)(F)CO2)ccc1Nc1cc(NC(=O)C2CC2)nc2[nH]c(C(F)F)nc12 (stereo not drawn) [I-571, N-(2-(difluoromethyl)-7-((4-(5,5-difluorotetrahydro-2H-pyran-2-yl)-2-(methylsulfonyl)phenyl)amino)-3H-imidazo[4,5-b]pyridin-5-yl)cyclopropanecarboxamide] | 0.1 to 0.5 |
| Cc1nc2c(Nc3ccc(C4CCC(F)(F)CO4)cc3S(C)(=O)=O)cc(NC(=O)C3CC3)nc2[nH]1 (stereo not drawn) [I-572, N-(7-((4-(5,5-difluorotetrahydro-2H-pyran-2-yl)-2-(methylsulfonyl)phenyl)amino)-2-methyl-3H-imidazo[4,5-b]pyridin-5-yl)cyclopropanecarboxamide] | 0.1 to 0.5 |
| COc1c(Nc2cc(Nc3cccc(C#N)n3)nc3[nH]c(C)nc23)cccc1-c1nccs1 [I-573, 6-((7-((2-methoxy-3-(thiazol-2-yl)phenyl)amino)-2-methyl-3H-imidazo[4,5-b]pyridin-5-yl)amino)picolinonitrile] | 1 to 10 |
| COc1c(Nc2cc(Nc3cccc(C#N)n3)nc3[nH]c(C(F)F)nc23)cccc1-c1cnn(C)n1 [I-574, 6-((2-(difluoromethyl)-7-((2-methoxy-3-(2-methyl-2H-1,2,3-triazol-4-yl)phenyl)amino)-3H-imidazo[4,5-b]pyridin-5-yl)amino)picolinonitrile] | 0.1 to 0.5 |
| Cc1nc2c(Nc3ccc(C4CCCO4)cc3S(C)(=O)=O)cc(Nc3ccc(C(C)C)c(C#N)n3)nc2[nH]1 (stereo not drawn) [I-575, 3-isopropyl-6-((2-methyl-7-((2-(methylsulfonyl)-4-(tetrahydrofuran-2-yl)phenyl)amino)-3H-imidazo[4,5-b]pyridin-5-yl)amino)picolinonitrile] | 0.1 to 0.5 |
| COc1c(Nc2cc(NC(=O)C3CC3)nc3[nH]c(C(F)F)nc23)ccc(-c2cc(C)n(C)n2)c1F [I-576, N-(2-(difluoromethyl)-7-((4-(1,5-dimethyl-1H-pyrazol-3-yl)-3-fluoro-2-methoxyphenyl)amino)-3H-imidazo[4,5-b]pyridin-5-yl)cyclopropanecarboxamide] | > 10 |
| COc1c(Nc2cc(NC(=O)C3CC3)nc3[nH]c(C)nc23)ccc(-c2cc(C)n(C)n2)c1F [I-577, N-(7-((4-(1,5-dimethyl-1H-pyrazol-3-yl)-3-fluoro-2-methoxyphenyl)amino)-2-methyl-3H-imidazo[4,5-b]pyridin-5-yl)cyclopropanecarboxamide] | > 10 |
| Cc1cc(Nc2cc(Nc3ccc(-c4nc(C)sc4C)cc3S(C)(=O)=O)c3nc(C(F)F)[nH]c3n2)nc(C)n1 [I-578, 2-(difluoromethyl)-N5-(2,6-dimethylpyrimidin-4-yl)-N7-(4-(2,5-dimethylthiazol-4-yl)-2-(methylsulfonyl)phenyl)-3H-imidazo[4,5-b]pyridine-5,7-diamine] | 0.1 to 0.5 |
| Cc1cc(Nc2cc(Nc3ccc(-c4nc(C)sc4C)cc3S(C)(=O)=O)c3nc(C)[nH]c3n2)nc(C)n1 [I-579, N5-(2,6-dimethylpyrimidin-4-yl)-N7-(4-(2,5-dimethylthiazol-4-yl)-2-(methylsulfonyl)phenyl)-2-methyl-3H-imidazo[4,5-b]pyridine-5,7-diamine] | < 0.1 |
| Cc1nc(-c2ccc(Nc3cc(Nc4cnc(C)c(C)n4)nc4[nH]c(C(F)F)nc34)c(S(C)(=O)=O)c2)c(C)s1 [I-580, 2-(difluoromethyl)-N5-(5,6-dimethylpyrazin-2-yl)-N7-(4-(2,5-dimethylthiazol-4-yl)-2-(methylsulfonyl)phenyl)-3H-imidazo[4,5-b]pyridine-5,7-diamine] | 0.1 to 0.5 |
| Cc1nc2c(Nc3ccc(-c4nc(C)sc4C)cc3S(C)(=O)=O)cc(Nc3cnc(C)c(C)n3)nc2[nH]1 [I-581, N5-(5,6-dimethylpyrazin-2-yl)-N7-(4-(2,5-dimethylthiazol-4-yl)-2-(methylsulfonyl)phenyl)-2-methyl-3H-imidazo[4,5-b]pyridine-5,7-diamine] | 0.1 to 0.5 |
| COc1cc(-c2nc(C)c(C)s2)ccc1Nc1cc(NC(=O)C2CC2)nc2[nH]c(C(F)F)nc12 [I-582, N-(2-(difluoromethyl)-7-((4-(4,5-dimethylthiazol-2-yl)-2-methoxyphenyl)amino)-3H-imidazo[4,5-b]pyridin-5-yl)cyclopropanecarboxamide] | > 10 |
| Cc1nc2c(Nc3ccc(-c4cc(C)n(C)n4)cc3S(C)(=O)=O)cc(Nc3cccc(C#N)n3)nc2[nH]1 [I-583, 6-((7-((4-(1,5-dimethyl-1H-pyrazol-3-yl)-2-(methylsulfonyl)phenyl)amino)-2-methyl-3H-imidazo[4,5-b]pyridin-5-yl)amino)picolinonitrile] | 0.1 to 0.5 |
| COCCCc1cnc(-c2ccc(Nc3cc(NC(=O)C4CC4)nc4[nH]c(C(F)F)nc34)c(S(C)(=O)=O)c2)s1 [I-584, N-(2-(difluoromethyl)-7-((4-(5-(3-methoxypropyl)thiazol-2-yl)-2-(methylsulfonyl)phenyl)amino)-3H-imidazo[4,5-b]pyridin-5-yl)cyclopropanecarboxamide] | 0.1 to 0.5 |
